Source: PubChem BioAssay AID2060907 (Molecular Pharmacology Branch, DTP, NCI, 2025)

Tested on: 388556-164-R-J1-PDC complex spheroid viability
Assay: Anticancer human tumor 388556-164-R-J1-PDC patient-derived colon adenocarcinoma cell line growth inhibition [RAS]
Conditions: for IC50: curve of first compound; for viability, T/C: stronger effect = lower value; active means viability on the fitted dose curve at most 10% of control; inactive means the rest
Summary of the method: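 Multi-cell-type spheroids: tumor cells plus HUVEC endothelial cells and mesenchymal stem cells. RAS-pathway inhibitors were combined with targeted agents, each dosed in half-log steps down from clinical Cmax, or from 10 microM when Cmax was unknown.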

[1] = second compound 0.000949 µM, first compound 0.0316 µM
[2] = second compound 0.000949 µM, first compound 0.1 µM
[3] = second compound 0.000949 µM, first compound 0.316 µM
[4] = second compound 0.000949 µM, first compound 1 µM
[5] = second compound 0.000949 µM, first compound 3.16 µM
[6] = second compound 0.000949 µM, first compound 10 µM
[7] = second compound 0.003 µM, first compound 0.0316 µM
[8] = second compound 0.003 µM, first compound 0.1 µM
[9] = second compound 0.003 µM, first compound 0.316 µM
[10] = second compound 0.003 µM, first compound 1 µM
[11] = second compound 0.003 µM, first compound 3.16 µM
[12] = second compound 0.003 µM, first compound 10 µM
[13] = second compound 0.00949 µM, first compound 0.0316 µM
[14] = second compound 0.00949 µM, first compound 0.1 µM
[15] = second compound 0.00949 µM, first compound 0.316 µM
[16] = second compound 0.00949 µM, first compound 1 µM
[17] = second compound 0.00949 µM, first compound 3.16 µM
[18] = second compound 0.00949 µM, first compound 10 µM
[19] = second compound 0.03 µM, first compound 0.0316 µM
[20] = second compound 0.03 µM, first compound 0.1 µM
[21] = second compound 0.03 µM, first compound 0.316 µM
[22] = second compound 0.03 µM, first compound 1 µM
[23] = second compound 0.03 µM, first compound 3.16 µM
[24] = second compound 0.03 µM, first compound 10 µM
[25] = second compound 0.0949 µM, first compound 0.0316 µM
[26] = second compound 0.0949 µM, first compound 0.1 µM
[27] = second compound 0.0949 µM, first compound 0.316 µM
[28] = second compound 0.0949 µM, first compound 1 µM
[29] = second compound 0.0949 µM, first compound 3.16 µM
[30] = second compound 0.0949 µM, first compound 10 µM
[31] = second compound 0.3 µM, first compound 0.0316 µM
[32] = second compound 0.3 µM, first compound 0.1 µM
[33] = second compound 0.3 µM, first compound 0.316 µM
[34] = second compound 0.3 µM, first compound 1 µM
[35] = second compound 0.3 µM, first compound 3.16 µM
[36] = second compound 0.3 µM, first compound 10 µM
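Further: spheroids exposed to compound for 7 days before readout.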
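Wherever viability, T/C is given: 100% = DMSO vehicle control luminescence.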

CCC(CC)c1cc(NC2CCC(N)C2)n2nccc2n1 (stereo unspecified) + CCn1c(-c2cc(N3CCN(C)CC3)cnc2C(C)OC)c2c3cc(ccc31)-c1csc(n1)CC(NC(=O)C1CC1C)C(=O)N1CCCC(N1)C(=O)OCC(C)(C)C2
1420 nM: IC50 (second compound 0.00949 µM)
1810 nM: IC50 (second compound 0.003 µM)
inactive: viability, T/C [1] 84.5% | viability, T/C [2] 104% | viability, T/C [3] 93.3% | viability, T/C [4] 90.6% | viability, T/C [5] 14.7% | viability, T/C [6] 10.2% | viability, T/C [7] 89.6% | viability, T/C [8] 85.2% | viability, T/C [9] 79.3% | viability, T/C [10] 81.1% | viability, T/C [11] 20.5% | viability, T/C [13] 82.7% | viability, T/C [14] 77.2% | viability, T/C [15] 73.7% | viability, T/C [16] 65.1% | viability, T/C [17] 15.4% | viability, T/C [18] 11.8% | viability, T/C [19] 56.5% | viability, T/C [20] 66.5% | viability, T/C [21] 57.9% | viability, T/C [22] 51.7% | viability, T/C [23] 10% | viability, T/C [24] 11.5% | viability, T/C [25] 40.5% | viability, T/C [26] 47% | viability, T/C [27] 47% | viability, T/C [28] 38.4% | viability, T/C [29] 9.16% | viability, T/C [30] 11.8% | viability, T/C [31] 28.7% | viability, T/C [32] 32.5% | viability, T/C [33] 32.4% | viability, T/C [34] 27.8% | viability, T/C [35] 5.58%
1050 nM: IC50 (second compound 0.03 µM)
active: viability, T/C [12] 9.94% | viability, T/C [36] 11%
1850 nM: IC50 (second compound 0.000949 µM)
< 31.6 nM: IC50 (second compound 0.0949 µM) | IC50 (second compound 0.3 µM)

CC(C)n1nc(-c2ccc3oc(N)nc3c2)c2c(N)ncnc21 + CCn1c(-c2cccnc2C(C)OC)c2c3cc(ccc31)N1CCOC(CC(NC(=O)C(C(C)C)N(C)C(=O)C3(F)CCN(C(=O)C#CC(C)(C)N(C)C)CC3)C(=O)N3CCCC(N3)C(=O)OCC(C)(C)C2)C1
inactive: viability, T/C (second compound 0.000949 µM, first compound 0.000316 µM) 95.8% | viability, T/C (second compound 0.000949 µM, first compound 0.001 µM) 93.2% | viability, T/C (second compound 0.000949 µM, first compound 0.00316 µM) 88.7% | viability, T/C (second compound 0.000949 µM, first compound 0.01 µM) 74.5% | viability, T/C [1] 63.6% | viability, T/C [2] 38% | viability, T/C (second compound 0.003 µM, first compound 0.000316 µM) 102% | viability, T/C (second compound 0.003 µM, first compound 0.001 µM) 90.6% | viability, T/C (second compound 0.003 µM, first compound 0.00316 µM) 86.7% | viability, T/C (second compound 0.003 µM, first compound 0.01 µM) 77.6% | viability, T/C [7] 64.8% | viability, T/C [8] 37.7% | viability, T/C (second compound 0.00949 µM, first compound 0.000316 µM) 99.3% | viability, T/C (second compound 0.00949 µM, first compound 0.001 µM) 97.8% | viability, T/C (second compound 0.00949 µM, first compound 0.00316 µM) 96% | viability, T/C (second compound 0.00949 µM, first compound 0.01 µM) 77.3% | viability, T/C [13] 60% | viability, T/C [14] 34.9% | viability, T/C (second compound 0.03 µM, first compound 0.000316 µM) 100% | viability, T/C (second compound 0.03 µM, first compound 0.001 µM) 87.6% | viability, T/C (second compound 0.03 µM, first compound 0.00316 µM) 89.1% | viability, T/C (second compound 0.03 µM, first compound 0.01 µM) 82.5% | viability, T/C [19] 60.5% | viability, T/C [20] 41.3% | viability, T/C (second compound 0.0949 µM, first compound 0.000316 µM) 93% | viability, T/C (second compound 0.0949 µM, first compound 0.001 µM) 95.6% | viability, T/C (second compound 0.0949 µM, first compound 0.00316 µM) 80.2% | viability, T/C (second compound 0.0949 µM, first compound 0.01 µM) 78.6% | viability, T/C [25] 63.8% | viability, T/C [26] 37.9% | viability, T/C (second compound 0.3 µM, first compound 0.000316 µM) 84.3% | viability, T/C (second compound 0.3 µM, first compound 0.001 µM) 89.4% | viability, T/C (second compound 0.3 µM, first compound 0.00316 µM) 77.2% | viability, T/C (second compound 0.3 µM, first compound 0.01 µM) 72.5% | viability, T/C [31] 58.9% | viability, T/C [32] 36.8%
56.8 nM: IC50 (second compound 0.000949 µM)
48.4 nM: IC50 (second compound 0.00949 µM)
61.5 nM: IC50 (second compound 0.03 µM)
49.8 nM: IC50 (second compound 0.3 µM)
57.4 nM: IC50 (second compound 0.0949 µM)
57.7 nM: IC50 (second compound 0.003 µM)

CCC(CC)c1cc(NC2CCC(N)C2)n2nccc2n1 (stereo unspecified) + CCn1c(-c2cccnc2C(C)OC)c2c3cc(ccc31)N1CCOC(CC(NC(=O)C(C(C)C)N(C)C(=O)C3(F)CCN(C(=O)C#CC(C)(C)N(C)C)CC3)C(=O)N3CCCC(N3)C(=O)OCC(C)(C)C2)C1
2940 nM: IC50 (second compound 0.3 µM)
5170 nM: IC50 (second compound 0.00949 µM)
4460 nM: IC50 (second compound 0.003 µM)
4850 nM: IC50 (second compound 0.000949 µM)
4120 nM: IC50 (second compound 0.03 µM)
inactive: viability, T/C [1] 101% | viability, T/C [2] 95.6% | viability, T/C [3] 104% | viability, T/C [4] 106% | viability, T/C [5] 60.2% | viability, T/C [6] 32.8% | viability, T/C [7] 113% | viability, T/C [8] 105% | viability, T/C [9] 100% | viability, T/C [10] 104% | viability, T/C [11] 57.6% | viability, T/C [12] 31.9% | viability, T/C [13] 112% | viability, T/C [14] 106% | viability, T/C [15] 102% | viability, T/C [16] 93.2% | viability, T/C [17] 64% | viability, T/C [18] 30.4% | viability, T/C [19] 105% | viability, T/C [20] 102% | viability, T/C [21] 107% | viability, T/C [22] 106% | viability, T/C [23] 54.3% | viability, T/C [24] 35.6% | viability, T/C [25] 110% | viability, T/C [26] 87.3% | viability, T/C [27] 100% | viability, T/C [28] 103% | viability, T/C [29] 58.3% | viability, T/C [30] 34.8% | viability, T/C [31] 101% | viability, T/C [32] 89.9% | viability, T/C [33] 92.6% | viability, T/C [34] 91.6% | viability, T/C [35] 47.2% | viability, T/C [36] 34.4%
4760 nM: IC50 (second compound 0.0949 µM)
